The text below walks through data of US7108832B2, “Sterialization methods and apparatus which employ additive-containing supercritical carbon dioxide sterilant” (NovaSterilis Inc., priority 2003, dated 2006).

For experiment [1], the system named is B. stearothermophilus spores. Briefly: Comparative additives in supercritical CO2 sterilization (Example 7). Type of experiment: cell-based. Particulars: 1.0 vol. %.
The next experiment has as its system B. subtilis spores. As to conditions: method of the Dillow et al '864 patent, other investigators (Spilimbergo et al 2002); cited from earlier work.
Experiment [2] has as its system B. stearothermophilus spores. The experiment is described as follows: Inactivation of B. stearothermophilus spores, Dillow '864 method with and without additive (Example 1). Type of experiment: cell-based. As to conditions: 1500–3000 psi, 3 cycles, agitation random/directional +/−, 60 °C, 2 hrs, initial 2.3 × 10^6 CFU/ml. An excerpt:
The effects of using an additive in accordance with the present invention was compared using the method described by U.S. Pat. No. 6,149,864 to Dillow et al for inactivating B. stearothermophilus spores. […] In contrast, a greater than 6 log reduction was achieved using the method of the present invention (Ex. B). The additive was placed on a cotton ball and inserted in the chamber prior to closure. No further additive was used.

Experiment [3] has as its system B. subtilis spore/vegetative preparations. Briefly: Sterilization of B. subtilis spore/vegetative preparations with additive-containing supercritical CO2, residual CFU count (Examples 3A-3D, 6A, 6B). Type of experiment: cell-based. Particulars: for kill of bioindicators: constant 2000 psi rather than cycling. The protocol: A sample of B. subtilis spore/vegetative preparations (1 mL) of greater than 10^6 CFU/mL was placed in a 16 mm diameter test tube in a stainless steel basket. Acetic acid (6 mL) was transferred by syringe onto the surface of a cotton ball placed in the basket, which was then loaded into the 600 mL reactor vessel. The reactor vessel was heated to 50° C. and equilibrated with CO2 at atmospheric pressure. […] Agitation was carried out for 1 minute.
After depressurizing the reactor vessel, more acetic acid (4 mL) was introduced at ambient pressure to the additive loop via port 18 (FIG. 1). The loop was sealed and pressurized to 3000 psi. The reactor vessel was the re-pressurized through the additive loop to 3000 psi such that acetic acid was transported into the reactor vessel.
The pressurization/stirring/agitation/depressurization/additive addition process was repeated a total of three times. After the third cycle, a series of three flushing cycles to remove the additive was performed by pressurizing and de-pressurizing the reactor vessel using CO2. The stirring was stopped and the basket was removed from the reactor vessel. The residual CFUs were counted after serial dilution and culturing of both treated and untreated controls.

The next experiment deals with bacterial spores. Briefly: Sterility assay of fresh or freeze-dried bone samples after treatment (Example 4). It is filed as cell-based. Particulars: 4 mL additive, 50° C., 3000 to 1500 psi, 3 cycles of 40 minutes. The protocol: Using the equipment and procedure in Example 1, samples of fresh or freeze-dried bone (1 cm×1 cm×0.5 cm) were placed into 16 mm test tubes in a stainless steel basket. Trifluoroacetic acid (4 mL) was transferred by syringe onto the surface of a cotton ball placed in basket, and the basket then loaded into the 600 mL reactor vessel. The reactor vessel was heated to 50° C. and equilibrated with CO2 at atmospheric pressure. The stirring and agitation mechanisms were activated and vessel pressurized to 3000 psi for 40 minutes. Agitation is carried out for 5 minutes. The CO2 pressure was then allowed to drop to 1500 psi at a rate of 300 psi/minute.
The pressurization/stirring/agitation/depressurization process was repeated a total of 3 times. After the third cycle, a series of three flushing cycles to remove the additive was performed by pressurizing and de-pressurizing the reactor vessel using CO2. The stirring was stopped and the basket was removed from the reactor vessel. Bone samples were assayed for sterility and compression strength with the results being that there was sterilization (i.e., >10^6 reduction in bacterial spores), and there was no reduction in compression strength attributes.

Experiment [4] deals with B. stearothermophilus spores. Briefly: Sterilization of B. stearothermophilus spores with additive-containing supercritical CO2, residual CFU count (Example 2). Type of experiment: cell-based. As to conditions: 4 mL additive + 6 mL water, 50° C., 2000 to 1100 psi, 3 cycles; multiple evaluations. As for the experimental part: The apparatus generally depicted in FIGS. 1 and 2 was employed for this Example. A sample of B. stearothermophilus spores (1 mL) of greater than 10^6 CFU/mL was placed in 16 mm diameter test tubes in a stainless steel basket. Trifluoroacetic acid (4 mL) was transferred by syringe onto the surface of a cotton ball placed in the basket and water (6 mL) was placed at bottom of vessel. The basket was then loaded into the 600 mL reactor vessel. The reactor vessel was heated to 50° C. and equilibrated with CO2 at atmospheric pressure. The stirring and agitation mechanisms were activated and the reactor vessel pressurized to 2000 psi for 40 minutes. The CO2 pressure was then allowed to drop to 1100 psi at a rate of 300 psi/minute. Agitation by means of vibration of the vessel was carried out for 1 minute.
The pressurization/stirring/agitation/depressurization process was repeated a total of three times. After the third cycle, a series of three flushing cycles to remove the additive was performed by pressurizing and partial de-pressurizing the reactor vessel using CO2. The stirring was stopped and the basket was removed from the reactor vessel. The residual CFUs were counted after serial dilution and culturing of both treated and untreated controls.

Experiment [5] relates to B. stearothermophilus spores. The experiment is described as follows: Linearity of inactivation, B. stearothermophilus spore bioindicators in TYVEK pouches (Example 8). Particulars: 4.5% peracetic acid at 0.02 vol. % + water at 1 vol. %. It is filed as cell-based. The protocol: Example 2B was repeated except that 4.5% peracetic acid was initially added to the vessel at 0.02 vol. % on a cotton ball and water was added on a separate cotton ball at 1 vol. %. B. stearothermophilus spores were inoculated onto glass fiber filters, allowed to dry and packaged into pouches formed of nonwoven fine polyethylene fibers (1073B TYVEK® brand material) and served as bioindicators. Total CFUs per filter were greater than 10^6. The bioindicators were exposed to differing times of treatment with 4 replicates per time point. The total remaining CFUs were then determined and a plot was generated of log reduction in CFUs over time (FIG. 3).

The structures appear in SMILES notation. “And” between values parts separate entries of the source, which are not always exact repeats. Equal entries are not always repeated. Bounds are passed on as bounds.

As to `OCl` [HOCl], the Log reduction in experiment [1] (60 C, 3 hours, 4 cycles) is on record as 0–0.50 log.

`O=CO` [Formic acid] returned a Log reduction in experiment [1] (50 C, 2 hours, 3 cycles) of 0 log.

Turning to `O=P(O)(O)O` [Phosphoric acid], in experiment [1] (50 C, 2 hours, 3 cycles), the Log reduction was 0.18–0.25 log.

As to `CCO` [Ethanol], in experiment [1] (60–50 C, 3 hours, 4 cycles), the Log reduction is listed as 1.2–4.0 log.

Turning to `O=C(O)CC(O)(CC(=O)O)C(=O)O` [50% Citric acid, Citric acid], in experiment [1] (60 C, 2 hours, 3 cycles), the Log reduction is 0.03–0.62 log.

Take `O=C=O` [supercritical carbon dioxide, carbon dioxide]: the “log reduction in B. subtilis spores” value in the experiment with B. subtilis spores is listed as 3.5 log.

Consider `O` [Ex. A, Water], for which, in experiment [2], the “Final CFU/ml” value was 2.1 × 10^5 CFU/ml; the “Log reduction” value is 1 log and 1.0 log.

In the case of `CC(=O)O` [acetic acid], the “kill of the B. subtilis present” value in experiment [3] (Example 3B: as 3A, samples with less than 10^6 CFU/ml) is given as “total kill”. In experiment [3] (Example 3B: extrapolated from total kill of samples with less than 10^6 CFU/ml), the “log reduction in CFUs extrapolated for greater than 10^6 CFU/ml” value is listed as 6 log. Also, the kill of bioindicators entry in experiment [3] (Example 3D: as 3A) is reported as “Compete kill”.

With `O=C(O)C(F)(F)F` [Trifluoroacetic acid], the “reduction in bacterial spores (sterility of bone samples)” value in the experiment with bacterial spores is > 10^6. Besides, in experiment [4], the kill of bioindicators entry is given as “Complete kill”.

Turning to `O=C(O)CCC(=O)O` [Succinic acid], the Log reduction in experiment [1] (50 C, 2 hours, 3 cycles) is listed as 0.25–0.29 log.

Regarding `CC(=O)OO` [peracetic acid], in experiment [3] (Example 6B: as 6A), the kill of bioindicators entry is on record as “Complete kill”. In experiment [5] (bioindicators in TYVEK pouches), the “inactivation rates (log reduction in CFUs over time)” value is “linear”. The “time for a single log reduction in the bioindicator” value in experiment [5] (spores on glass fiber filters in TYVEK pouches, >10^6 CFUs per filter, 4 replicates per time point) was found to be 14.24 minutes.

Consider `O=C(O)CC(=O)O` [Malonic acid], for which, in experiment [1] (50 C, 2 hours, 3 cycles), the Log reduction is recorded as 0–0.12 log.
